Literature values in patent publication US7160060B1, “System and method of remediation of contaminants” (priority 2004, dated 2007).

Conditions: select chlorinated organics (Table 1)

Compound | SOLUBILITY IN WATER at 25° C.
ClC=C(Cl)Cl [Trichloroethylene] | 1,280 mg/L
C=CCl [Vinyl Chloride] | 8,800 mg/L
ClC(Cl)=C(Cl)Cl [Perchloroethylene] | 150 mg/L

Same assay, conditions: select polycyclic aromatic hydrocarbons (Table 3)

Compound | SOLUBILITY IN WATER at 25° C. [mg/L]
c1ccc2c(c1)ccc1cc3c(ccc4ccccc43)cc12 [Dibenz(a,h)anthracene] | 0.0006
c1cc2ccc3ccc4ccc5cccc6c(c1)c2c3c4c56 [Benzo(g,h,i)perylene] | 0.00026
c1ccc2c(c1)cc1ccc3cccc4ccc2c1c34 [Benzo(a)pyrene] | 0.0016
c1ccc2c(c1)ccc1c3ccccc3ccc21 [Chrysene] | 0.00189
c1ccc2cc3ccccc3cc2c1 [Anthracene] | 0.075
c1ccc2c(c1)ccc1ccccc12 [Phenanthrene] | 1.18

Same assay, conditions: select volatile organic chemicals (BTEX) (Table 2)

Compound | SOLUBILITY IN WATER at 25° C. [mg/L]
Cc1ccc(C)cc1 [p-xylene isomer, p-xylene] | 198
